According to ChEMBL document CHEMBL1240295, “Specificity and mechanism of action of some commonly used protein kinase inhibitors” (Biochem J, 2000):

Experiments:
[1] = species: Oryctolagus cuniculus; test: Inhibition of rabbit MKK1 expressed in Escherichia coli at 1 uM; details: values are per cent of control
[2] = species: Oryctolagus cuniculus; test: Inhibition of MAPKAPK1b from rabbit skeletal muscle at 1 uM; type: tissue-based; details: Muscle tissue, values are per cent of control
[3] = target: Protein kinase C alpha type (Homo sapiens, UniProt P17252); test: Inhibition of His-tagged human PKCalpha expressed in Escherichia coli at 1 uM; details: values are per cent of control
[4] = target: RAC-alpha serine/threonine-protein kinase (Homo sapiens) (UniProt P31749); test: Inhibition of human PKBalpha expressed in SF9 cells at 1 uM; details: values are per cent of control
[5] = target: T1, Serine/threonine-protein kinase Sgk1 (Homo sapiens) (UniProt O00141); test: Inhibition of His-tagged human SGK expressed in Sf9 cells at 1 uM; details: values are per cent of control
T1 sequence (whole entry): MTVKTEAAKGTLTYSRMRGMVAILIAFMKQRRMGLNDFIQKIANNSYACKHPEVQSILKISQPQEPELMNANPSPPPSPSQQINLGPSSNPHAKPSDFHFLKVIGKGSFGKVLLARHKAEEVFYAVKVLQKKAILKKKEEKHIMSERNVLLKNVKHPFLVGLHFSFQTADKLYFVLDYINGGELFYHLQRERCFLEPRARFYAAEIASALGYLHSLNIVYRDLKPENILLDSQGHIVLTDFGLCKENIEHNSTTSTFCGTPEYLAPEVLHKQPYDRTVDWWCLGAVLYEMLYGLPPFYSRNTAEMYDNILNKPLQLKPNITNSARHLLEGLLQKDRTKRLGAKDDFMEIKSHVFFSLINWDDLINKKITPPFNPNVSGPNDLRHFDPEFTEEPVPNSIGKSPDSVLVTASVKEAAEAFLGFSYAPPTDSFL

[6] = target: Rho-associated protein kinase 2 (Rattus norvegicus) (UniProt Q62868); test: Inhibition of rat ROCK2 expressed in Sf9 cells at 1 uM; details: values are per cent of control
[7] = species: Rattus norvegicus; test: Inhibition of rat liver AMPK at 1 uM; details: values are per cent of control
[8] = target: Casein kinase II (Homo sapiens) (UniProt P67870+P68400+P19784); test: Inhibition of His-tagged human CK2 expressed in Sf9 cells at 1 uM; details: values are per cent of control
[9] = species: Oryctolagus cuniculus; test: Inhibition of PHK from rabbit skeletal muscle at 1 uM; type: tissue-based; details: Muscle tissue, values are per cent of control
[10] = target: 3-phosphoinositide-dependent protein kinase 1 (Homo sapiens) (UniProt O15530); test: Inhibition of His-tagged human PDK1 expressed in Sf21 cells at 1 uM; details: values are per cent of control
[11] = target: Ribosomal protein S6 kinase alpha-5 (Homo sapiens, UniProt O75582); test: Inhibition of His-tagged human MSK1 expressed in Sf9 cells at 1 uM; values are per cent of control
[12] = target: T2, MAP kinase-activated protein kinase 5 (Homo sapiens) (UniProt Q8IW41); test: Inhibition of His-tagged human PRAK expressed in Sf9 cells at 1 uM; values are per cent of control
T2 sequence (whole entry): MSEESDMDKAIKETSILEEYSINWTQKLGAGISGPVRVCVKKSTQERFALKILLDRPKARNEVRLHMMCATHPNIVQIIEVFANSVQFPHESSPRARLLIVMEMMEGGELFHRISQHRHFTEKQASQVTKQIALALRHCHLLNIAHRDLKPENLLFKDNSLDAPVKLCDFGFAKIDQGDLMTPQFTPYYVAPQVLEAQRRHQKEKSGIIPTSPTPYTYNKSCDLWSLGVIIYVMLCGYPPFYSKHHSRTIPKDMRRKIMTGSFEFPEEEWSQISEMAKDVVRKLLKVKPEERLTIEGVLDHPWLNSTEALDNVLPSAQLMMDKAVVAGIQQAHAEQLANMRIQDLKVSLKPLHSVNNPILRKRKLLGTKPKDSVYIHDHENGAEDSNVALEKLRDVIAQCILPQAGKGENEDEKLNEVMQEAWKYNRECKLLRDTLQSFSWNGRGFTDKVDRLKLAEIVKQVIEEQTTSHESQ

[13] = target: Ribosomal protein S6 kinase beta-1 (Homo sapiens, UniProt P23443); test: Inhibition of His-tagged human S6K1 expressed in Escherichia coli at 1 uM; values are per cent of control
[14] = target: T3, Serine/threonine-protein kinase Chk1 (Homo sapiens) (UniProt O14757); test: Inhibition of His-tagged human CHK1 expressed in Escherichia coli at 1 uM; values are per cent of control
T3 sequence (whole entry): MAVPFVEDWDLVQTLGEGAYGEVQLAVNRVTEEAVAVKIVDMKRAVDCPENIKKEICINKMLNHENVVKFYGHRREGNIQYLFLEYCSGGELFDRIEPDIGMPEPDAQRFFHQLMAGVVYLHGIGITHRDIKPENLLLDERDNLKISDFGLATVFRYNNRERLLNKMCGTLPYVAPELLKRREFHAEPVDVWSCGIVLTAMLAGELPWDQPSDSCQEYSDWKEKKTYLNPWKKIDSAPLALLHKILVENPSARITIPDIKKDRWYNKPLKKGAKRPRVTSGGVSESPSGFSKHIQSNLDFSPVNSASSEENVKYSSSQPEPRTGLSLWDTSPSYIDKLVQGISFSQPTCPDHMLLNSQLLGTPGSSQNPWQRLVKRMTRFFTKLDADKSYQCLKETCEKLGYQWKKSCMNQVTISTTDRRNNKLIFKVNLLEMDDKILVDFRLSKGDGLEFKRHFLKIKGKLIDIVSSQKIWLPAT

[15] = target: Mitogen-activated protein kinase 11 (Homo sapiens) (UniProt Q15759); test: Inhibition of His-tagged human SAPK2b/p38b2 expressed in Escherichia coli at 1 uM; values are per cent of control
[16] = target: Mitogen-activated protein kinase 8 (Homo sapiens) (UniProt P45983); test: Inhibition of His-tagged human JNK1a1/SAPK1c expressed in Escherichia coli at 1 uM; values are per cent of control
[17] = target: T4, Mitogen-activated protein kinase 12 (Homo sapiens) (UniProt P53778); test: Inhibition of His-tagged human SAPK3/p38gamma expressed in Escherichia coli at 1 uM; values are per cent of control
T4 sequence (whole entry): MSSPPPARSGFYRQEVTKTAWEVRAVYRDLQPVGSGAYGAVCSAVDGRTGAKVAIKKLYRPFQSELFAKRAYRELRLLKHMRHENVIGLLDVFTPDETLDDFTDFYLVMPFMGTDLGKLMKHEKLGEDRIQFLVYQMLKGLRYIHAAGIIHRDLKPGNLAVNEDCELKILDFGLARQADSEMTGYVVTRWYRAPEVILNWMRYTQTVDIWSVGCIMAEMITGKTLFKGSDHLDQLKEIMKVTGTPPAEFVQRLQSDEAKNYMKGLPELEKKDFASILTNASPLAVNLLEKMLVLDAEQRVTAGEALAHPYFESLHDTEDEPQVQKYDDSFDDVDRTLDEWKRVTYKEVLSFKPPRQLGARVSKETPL

Chain of Mitogen-activated protein kinase 8 (Homo sapiens) (P45983 whole entry): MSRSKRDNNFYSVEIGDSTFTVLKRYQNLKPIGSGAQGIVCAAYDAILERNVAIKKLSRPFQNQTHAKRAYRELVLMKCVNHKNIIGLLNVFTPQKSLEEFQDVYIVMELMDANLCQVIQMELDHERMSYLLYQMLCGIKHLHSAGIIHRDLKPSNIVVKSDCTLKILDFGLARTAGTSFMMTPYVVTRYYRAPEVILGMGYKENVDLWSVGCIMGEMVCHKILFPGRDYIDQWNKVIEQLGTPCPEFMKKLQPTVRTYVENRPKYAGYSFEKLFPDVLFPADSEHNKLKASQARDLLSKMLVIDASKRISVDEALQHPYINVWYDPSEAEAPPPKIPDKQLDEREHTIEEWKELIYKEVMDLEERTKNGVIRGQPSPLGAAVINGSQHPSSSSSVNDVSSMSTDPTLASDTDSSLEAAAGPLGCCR
Chain of Rho-associated protein kinase 2 (Rattus norvegicus) (Q62868 whole entry, looked up): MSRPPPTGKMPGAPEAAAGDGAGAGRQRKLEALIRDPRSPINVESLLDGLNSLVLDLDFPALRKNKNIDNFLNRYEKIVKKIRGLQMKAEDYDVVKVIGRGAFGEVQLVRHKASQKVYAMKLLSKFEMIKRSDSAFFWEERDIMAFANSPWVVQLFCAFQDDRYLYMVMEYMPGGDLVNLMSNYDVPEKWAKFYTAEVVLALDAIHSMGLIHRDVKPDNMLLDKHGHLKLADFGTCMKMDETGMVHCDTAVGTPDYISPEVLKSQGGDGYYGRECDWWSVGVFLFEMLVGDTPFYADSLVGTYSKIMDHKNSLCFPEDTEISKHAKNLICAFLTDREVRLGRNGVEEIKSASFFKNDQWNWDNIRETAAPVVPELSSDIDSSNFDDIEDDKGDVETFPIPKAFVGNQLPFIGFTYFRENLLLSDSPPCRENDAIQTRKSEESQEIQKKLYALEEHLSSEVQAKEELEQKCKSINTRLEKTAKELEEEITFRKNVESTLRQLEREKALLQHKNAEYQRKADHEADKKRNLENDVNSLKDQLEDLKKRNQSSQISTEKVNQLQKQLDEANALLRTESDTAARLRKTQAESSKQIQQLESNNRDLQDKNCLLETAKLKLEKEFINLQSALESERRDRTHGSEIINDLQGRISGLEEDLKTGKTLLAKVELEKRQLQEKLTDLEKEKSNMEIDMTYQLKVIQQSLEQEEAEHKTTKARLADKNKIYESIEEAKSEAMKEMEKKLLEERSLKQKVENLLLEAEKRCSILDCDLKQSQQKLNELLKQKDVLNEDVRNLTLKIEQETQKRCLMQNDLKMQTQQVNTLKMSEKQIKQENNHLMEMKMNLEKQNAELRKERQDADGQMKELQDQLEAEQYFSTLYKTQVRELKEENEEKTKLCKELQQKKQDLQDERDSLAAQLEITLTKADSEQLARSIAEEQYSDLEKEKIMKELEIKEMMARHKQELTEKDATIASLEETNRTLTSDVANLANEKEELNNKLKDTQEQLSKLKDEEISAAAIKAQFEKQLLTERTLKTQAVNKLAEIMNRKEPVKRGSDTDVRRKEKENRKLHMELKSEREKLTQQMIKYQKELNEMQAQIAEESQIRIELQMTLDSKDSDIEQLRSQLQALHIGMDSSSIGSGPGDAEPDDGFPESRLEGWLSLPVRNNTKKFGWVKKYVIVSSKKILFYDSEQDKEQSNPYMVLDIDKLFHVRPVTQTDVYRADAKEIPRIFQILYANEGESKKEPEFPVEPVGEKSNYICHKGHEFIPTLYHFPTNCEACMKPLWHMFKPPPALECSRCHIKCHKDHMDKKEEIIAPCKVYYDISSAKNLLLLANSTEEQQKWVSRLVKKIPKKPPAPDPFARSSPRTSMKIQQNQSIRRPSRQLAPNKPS
Chain of Ribosomal protein S6 kinase alpha-5 (O75582 whole entry, looked up): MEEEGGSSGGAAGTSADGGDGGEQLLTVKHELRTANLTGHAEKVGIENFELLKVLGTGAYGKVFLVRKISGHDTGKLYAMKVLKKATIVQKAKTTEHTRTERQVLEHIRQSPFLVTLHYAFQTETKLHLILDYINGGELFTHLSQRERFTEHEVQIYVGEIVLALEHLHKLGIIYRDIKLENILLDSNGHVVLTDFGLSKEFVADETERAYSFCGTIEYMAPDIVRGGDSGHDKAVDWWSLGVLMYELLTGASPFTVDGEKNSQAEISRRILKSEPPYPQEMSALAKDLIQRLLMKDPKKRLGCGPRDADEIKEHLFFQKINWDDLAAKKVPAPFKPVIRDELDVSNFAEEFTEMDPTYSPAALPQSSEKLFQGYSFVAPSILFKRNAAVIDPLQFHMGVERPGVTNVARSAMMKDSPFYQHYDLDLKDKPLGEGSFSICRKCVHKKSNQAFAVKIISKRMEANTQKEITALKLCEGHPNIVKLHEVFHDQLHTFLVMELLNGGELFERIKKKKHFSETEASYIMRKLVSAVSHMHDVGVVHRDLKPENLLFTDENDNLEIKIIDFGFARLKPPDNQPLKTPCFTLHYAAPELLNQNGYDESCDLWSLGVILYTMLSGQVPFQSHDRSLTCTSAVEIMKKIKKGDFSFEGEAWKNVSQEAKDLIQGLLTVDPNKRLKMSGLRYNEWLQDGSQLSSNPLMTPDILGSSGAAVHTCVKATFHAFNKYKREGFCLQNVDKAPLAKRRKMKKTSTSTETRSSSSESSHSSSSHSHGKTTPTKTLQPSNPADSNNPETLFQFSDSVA
Chain of RAC-alpha serine/threonine-protein kinase (Homo sapiens) (P31749 whole entry): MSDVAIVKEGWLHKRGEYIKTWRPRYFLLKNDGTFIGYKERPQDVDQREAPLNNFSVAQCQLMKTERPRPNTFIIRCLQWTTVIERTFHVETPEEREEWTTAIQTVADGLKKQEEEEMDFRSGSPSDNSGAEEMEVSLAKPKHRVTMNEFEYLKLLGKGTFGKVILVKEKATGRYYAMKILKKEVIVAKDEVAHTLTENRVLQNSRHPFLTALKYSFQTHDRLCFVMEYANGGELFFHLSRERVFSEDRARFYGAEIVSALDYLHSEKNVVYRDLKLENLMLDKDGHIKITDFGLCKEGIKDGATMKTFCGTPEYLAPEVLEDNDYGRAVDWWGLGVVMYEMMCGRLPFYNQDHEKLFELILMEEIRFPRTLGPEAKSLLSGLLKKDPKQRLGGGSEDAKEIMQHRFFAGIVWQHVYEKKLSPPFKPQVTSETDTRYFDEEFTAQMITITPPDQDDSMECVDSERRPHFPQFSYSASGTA
Chain of Ribosomal protein S6 kinase beta-1 (P23443 whole entry, looked up): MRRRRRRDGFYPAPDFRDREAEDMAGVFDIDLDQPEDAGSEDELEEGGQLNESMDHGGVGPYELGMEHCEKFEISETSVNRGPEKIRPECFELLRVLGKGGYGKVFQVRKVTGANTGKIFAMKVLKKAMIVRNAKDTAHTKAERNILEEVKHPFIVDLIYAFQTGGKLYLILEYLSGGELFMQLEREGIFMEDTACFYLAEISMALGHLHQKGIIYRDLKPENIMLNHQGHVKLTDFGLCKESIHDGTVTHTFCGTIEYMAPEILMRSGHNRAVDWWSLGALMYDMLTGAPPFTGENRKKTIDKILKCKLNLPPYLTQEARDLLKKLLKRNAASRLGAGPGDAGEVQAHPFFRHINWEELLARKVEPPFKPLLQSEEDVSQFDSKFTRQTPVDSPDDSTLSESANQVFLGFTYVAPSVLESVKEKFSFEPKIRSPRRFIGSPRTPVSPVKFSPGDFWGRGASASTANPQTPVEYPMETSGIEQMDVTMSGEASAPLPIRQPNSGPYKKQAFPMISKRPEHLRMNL
Chain of 3-phosphoinositide-dependent protein kinase 1 (Homo sapiens) (O15530 whole entry, looked up): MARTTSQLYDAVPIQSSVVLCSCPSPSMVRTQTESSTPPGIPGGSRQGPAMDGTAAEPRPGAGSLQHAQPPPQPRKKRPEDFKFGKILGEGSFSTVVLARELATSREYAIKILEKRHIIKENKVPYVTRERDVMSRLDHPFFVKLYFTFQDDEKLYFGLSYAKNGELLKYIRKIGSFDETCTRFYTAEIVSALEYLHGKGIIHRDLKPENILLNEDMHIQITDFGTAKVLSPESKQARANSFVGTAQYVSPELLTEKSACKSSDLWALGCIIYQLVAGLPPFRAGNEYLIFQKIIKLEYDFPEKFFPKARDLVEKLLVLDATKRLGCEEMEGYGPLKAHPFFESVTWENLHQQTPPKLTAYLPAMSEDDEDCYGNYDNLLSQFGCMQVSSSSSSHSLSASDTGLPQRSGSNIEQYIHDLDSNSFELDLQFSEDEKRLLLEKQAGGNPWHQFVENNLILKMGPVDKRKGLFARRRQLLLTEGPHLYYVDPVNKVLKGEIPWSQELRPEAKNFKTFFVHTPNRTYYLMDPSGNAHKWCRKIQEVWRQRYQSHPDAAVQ

Compound	residual activity [1] [%]	residual activity [2] [%]	residual activity [3] [%]	residual activity [4] [%]	residual activity [5] [%]	residual activity [6] [%]	residual activity [7] [%]	residual activity [8] [%]	residual activity [9] [%]	residual activity [10] [%]	residual activity [11] [%]	residual activity [12] [%]	residual activity [13] [%]	residual activity [14] [%]	residual activity [15] [%]	residual activity [16] [%]	residual activity [17] [%]
O=C1NC(=O)C(c2c[nH]c3ccccc23)=C1c1c[nH]c2ccccc12	84	54	57	101	101	100	96	99	90	95	56	96	87	91	88	95	83
CO[C@H]1C[C@@H]2CC[C@@H](C)[C@@](O)(O2)C(=O)C(=O)N2CCCC[C@H]2C(=O)O[C@H]([C@H](C)C[C@@H]2CC[C@@H](O)[C@H](OC)C2)CC(=O)[C@H](C)/C=C(\C)[C@@H](O)[C@@H](OC)C(=O)[C@H](C)C[C@H](C)/C=C/C=C/C=C/1C	99	95	99	91	108	92	106	104	103	110	104	74	109	102	88	98	100
CN1C(=O)C(c2c[nH]c3ccccc23)=C(c2c[nH]c3ccccc23)C1=O	99	92	104	91	96	107	102	98	100	109	103	85	110	104	104	100	99
Cn1cc(C2=C(c3cn(CCCN)c4ccccc34)C(=O)NC2=O)c2ccccc21	99	4	14	98	28	106	60	103	58	107	13	102	29	71	104	95	107
Cn1cc(C2=C(c3cn(CCCSC(=N)N)c4ccccc34)C(=O)NC2=O)c2ccccc21 [BISINDOLYLMALEIMIDE IX]	94	2	3	73	21	92	42	104	57	84	2	96	6	42	97	95	92
NCCCn1cc(C2=C(c3c[nH]c4ccccc34)C(=O)NC2=O)c2ccccc21	90	2	7	99	26	89	23	106	20	69	9	89	18	40	115	100	116
COC[C@H]1OC(=O)c2coc3c2[C@@]1(C)C1=C(C3=O)[C@@H]2CCC(=O)[C@@]2(C)C[C@H]1OC(C)=O [WORTMANNIN]	96	92	100	96	101	91	106	98	100	88	99	85	106	99	74	97	75
Cn1cc(C2=C(c3c4n(c5ccccc35)CCC(CN)C4)C(=O)NC2=O)c2ccccc21 (stereo unspecified)	94	5	1	104	34	103	71	104	60	122	5	101	12	50	102	103	116
